pIC50: −log10 of the molar value. Values after ≈ are worked out from the molar mass of the structure shown. Where two headings read alike, the source gives them in different places.
Legend:
[1] = FaSSIF Solubility Assay; assay type: physicochemical; conditions: FaSSIF (fasted state simulated intestinal fluid), 25 °C, pH 6.5, fassif, thermodynamic from solid, FaSSIF pH=6.5, 25° C.
Description: The FaSSIF (Fasted State Simulated Intestinal Fluid) solubility assay can predict how an oral drug is likely to be dissolved and potentially absorbed in the upper intestine after drinking a glass of water. FaSSIF solubility assay utilizes biorelevant intestinal media (Biorelevant, Part #FFF01) comprised of physiological surfactants, bile salts, and phospholipids that are present in the gastrointestinal fluids it mimics. FaSSIF (pH=6.5) has the average pH of a fasted intestinal fluid with similar osmolarity. The FaSSIF buffer was prepared by adding 20 mL of phosphate buffer to FaSSIF Powder. The buffer was then added to the dry compound of interest at a concentration of 1 mg/mL and then incubated at 25° C. for 24 hours in a Rototherm Plus (Part #H2024). After incubation, the Eppendorf tubes were centrifuged and run on an Agilent 1260 LC-MS. The LC-MS method is a 5 min gradient method of 2% to 95% acetonitrile with water (0.05% TFA) using a Sunfire C18, 5 um 2.1×50 mm (Part #186002539) column. A dry reference compound of interest was diluted to a known 1 mg/mL concentration in 1:1 of water and acetonitrile. Step-wise serial dilutions were performed and run on an Agilent 1260 LC-MS using the same conditions to make a standard curve. The area under the curve is reported for the compound of interest in FaSSIF buffer and the reference standards. Calculations were performed and the predicted solubility, μg/mL, was reported for compounds of the examples.

[2] = test system: pSTAT5 in SET-2 cells in whole blood; assay: pSTAT5 SET-2 Whole Blood MSD Assay; assay type: cell-based; conditions: Homo sapiens, 2 hour incubation, read-out: SET2 WB IC50
Protocol: SET-2 cells shipped from ABS, RPMI1640 medium, Fetal Bovine Serum from Gibco, Phospho-STAT5a,b Whole Cell Lysate Kit from Mesoscale, Retronectin (Recombinant Human Fibronectin Fragment) from TaKaRa, 96 well cell culture plate flat bottom from Corning, lysis buffer from Cell Signaling Technology, and sterile PBS from Gibco. Whole Blood from by BioIVT.
SET-2 cells were cultured in RPMI media with 20% FBS at 37° C. humidified incubator supplied with 5% CO2. On the day of the assay, 40 uL per well of diluted retronectin working solution was added to sterile 96-well clear flat bottom tissue culture plates (1:200 dilution of retronectin in sterile PBS) and incubated at 37 C for 1 hour. After 1 hour, the retronectin working solution was aspirated and SET-2 cells were seeded at 100,000/well in RPMI+20% FBS. Cells were incubated overnight at 37° C. and 5% CO2. The next day, the medium was removed and 40 μL of diluted compounds in serum-free RPMI and whole blood was added to the cells for a 2 hour incubation at 37° C. and 5% CO2. The compound starting concentration is 20 μM and 2.5 fold serial diluted down to 0.21 nM. The whole blood and compound mixture was then aspirated off using the BlueCat plate washer and washed 1× with PBS. Cells were lysed by adding 40 μL of 3× complete lysis buffer and shaken at room temperature for 45-60 minutes (complete lysis buffer consists of Cell Signaling Technology lysis buffer diluted to 3× and supplemented with Mesoscale's protease inhibitor, phosphatase I inhibitor, and phosphatase II inhibitor). The pSTAT5 MSD plates were blocked by adding 150 μL of Blocker A solution per well to the MSD plates and incubated at room temperature with shaking at 400 rpm for one hour or longer. After blocking, plates were washed 3× with 300 μL/well of 1× Tris Wash Buffer. After lysis, added 25 μL per well of lysed sample was added to MSD plate and incubated with shaking at 4° C. wrapped in foil overnight. The next day, plates were washed again and 25 μL/well of diluted 1× Detection Antibody Solution, wrapped in foil, and incubated at room temperature with shaking at 400 rpm for 1 hour. Plates were then washed again and lastly, 150 μL/well of 1× Read Buffer T was added to all wells. Plates were analyzed on MSD Discovery within 5 minutes. […] Data analysis was performed in GraphPad Prism using a 4-parameter fit and data was reported as Average±SD.

[3] = test system: FLT3; assay: FLT3 Enzymatic Assay; assay type: biochemical
Summary of the method: (§1)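 Room-temperature HTRF kinase assay (665/620 nm ratio) with 0.011 nM FLT3, 1 mM ATP, 500 nM biotinylated TK substrate in HEPES pH 7.0 buffer with MgCl2 and DTT; 0.5% DMSO final. Read after 60 min incubation; IC50 fitted from percent control activity versus log concentration, no-ATP wells as negative control.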

[4] = molecular target: FLT3 (Homo sapiens (Human), UniProt P36888); assay: FLT3 Enzymatic Assay; assay type: biochemical; conditions: 1 mM ATP
Chain of FLT3 (Homo sapiens (Human), UniProt P36888) (P36888 27-993, species assumed): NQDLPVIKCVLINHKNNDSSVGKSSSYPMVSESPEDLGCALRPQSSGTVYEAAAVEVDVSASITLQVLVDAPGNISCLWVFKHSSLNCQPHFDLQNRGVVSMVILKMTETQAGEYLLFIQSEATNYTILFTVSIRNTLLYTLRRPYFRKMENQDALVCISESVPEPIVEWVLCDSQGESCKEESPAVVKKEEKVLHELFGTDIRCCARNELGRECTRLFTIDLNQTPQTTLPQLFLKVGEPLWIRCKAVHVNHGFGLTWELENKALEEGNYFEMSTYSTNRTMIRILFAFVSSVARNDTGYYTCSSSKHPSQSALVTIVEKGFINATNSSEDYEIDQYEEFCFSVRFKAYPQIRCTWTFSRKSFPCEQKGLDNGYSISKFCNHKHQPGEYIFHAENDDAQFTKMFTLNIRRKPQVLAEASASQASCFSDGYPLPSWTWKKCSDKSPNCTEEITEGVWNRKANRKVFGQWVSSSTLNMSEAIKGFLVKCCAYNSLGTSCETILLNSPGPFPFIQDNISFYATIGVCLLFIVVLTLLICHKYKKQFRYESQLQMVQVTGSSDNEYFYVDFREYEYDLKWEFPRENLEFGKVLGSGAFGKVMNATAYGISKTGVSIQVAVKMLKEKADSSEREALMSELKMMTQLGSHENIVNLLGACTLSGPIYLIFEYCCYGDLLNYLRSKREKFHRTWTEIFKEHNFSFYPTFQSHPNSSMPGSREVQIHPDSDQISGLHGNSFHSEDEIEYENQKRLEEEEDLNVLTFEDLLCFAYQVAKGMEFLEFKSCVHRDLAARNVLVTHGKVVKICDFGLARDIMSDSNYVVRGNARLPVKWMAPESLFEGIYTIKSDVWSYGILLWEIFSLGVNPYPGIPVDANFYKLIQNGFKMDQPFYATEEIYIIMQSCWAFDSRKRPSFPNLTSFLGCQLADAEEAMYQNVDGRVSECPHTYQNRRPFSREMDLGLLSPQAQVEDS
Summary of the method: as §1

SMILES	solubility at 24 h ([1]; read-out: FaSSIF solubility)	solubility at 24 h ([1]; read-out: Solubility Fassif)	pIC50 [2]	Selectivity FLT3/JH2 V617F [3]	pIC50 [4]
COc1nn(C)cc1-c1[nH]c2ncc3c(c2c1-c1ccc2c(cnn2C)c1)n(C1CCOCC1)c(=O)n3C [Comparative Example A, reference compound]	< 20 µg/mL	≤ 50 µg/mL	5.12 to 5.30	* (selectivity of ≤500-fold)	–
[2H]C([2H])([2H])n1ncc2cc(-c3c(-c4cn(C)nc4OC)[nH]c4ncc5c(c34)n(C3CCOCC3)c(=O)n5C)ccc21 [Comparative Example B, reference compound]	–	≤ 50 µg/mL	5.12 to 5.30	* (selectivity of ≤500-fold)	–
COc1nn(C)cc1-c1[nH]c2ncc3c(c2c1-c1ccc2c(cnn2C)c1)n([C@H]1CC[C@@H](CC#N)CC1)c(=O)n3C [E, reference compound]	–	≤ 50 µg/mL	< 5.12	* (selectivity of ≤500-fold)	–
[2H]C([2H])([2H])N(Cc1ccc(-c2[nH]c3ncc4c(c3c2-c2ccc3c(c2)CC(C)(C)O3)n([C@@H]2CC[C@@H](NC(=O)OC)C2)c(=O)n4C([2H])([2H])[2H])cc1)C([2H])([2H])[2H] [Example 25, Methyl ((1R,3R)-3-(7-(4-((bis(methyl-d3)amino)methyl)phenyl)-8-(2,2-dimethyl-2,3-dihydrobenzofuran-5-yl)-3-(methyl-d3)-2-oxo-3,6-dihydroimidazo[4,5-d]pyrrolo[2,3-b]pyridin-1(2H)-yl)cyclopentyl)carbamate]	–	50 to 500 µg/mL (≈ 80.9 to 809 µM)	≥ 5.60	**** (selectivity of >1750-fold to ≤5000-fold)	5.90 to 6.60
[2H]C([2H])([2H])n1c(=O)n([C@@H]2CC[C@@H](NC(=O)OC)C2)c2c3c(-c4ccc5c(cnn5C(C)C)c4)c(-c4ccc(CN(C)C)cc4)[nH]c3ncc21 [Example 26, Methyl ((1R,3R)-3-(7-(4-((dimethylamino)methyl)phenyl)-8-(1-isopropyl-1H-indazol-5-yl)-3-(methyl-d3)-2-oxo-3,6-dihydroimidazo[4,5-d]pyrrolo[2,3-b]pyridin-1(2H)-yl)cyclopentyl)carbamate]	–	> 500 µg/mL	≥ 5.60	**** (selectivity of >1750-fold to ≤5000-fold)	5.90 to 6.60
[2H]C([2H])([2H])N(Cc1ccc(-c2[nH]c3ncc4c(c3c2-c2ccc(OCCOC)cc2)n([C@@H]2CC[C@@H](NC(=O)OC)C2)c(=O)n4C([2H])([2H])[2H])cc1)C([2H])([2H])[2H] [Example 27, Methyl ((1R,3R)-3-(7-(4-((bis(methyl-d3)amino)methyl)phenyl)-8-(4-(2-methoxyethoxy)phenyl)-3-(methyl-d3)-2-oxo-3,6-dihydroimidazo[4,5-d]pyrrolo[2,3-b]pyridin-1(2H)-yl)cyclopentyl)carbamate]	–	> 500 µg/mL	≥ 5.60	*** (selectivity of >1500-fold to ≤1750-fold)	5.90 to 6.60
COC(=O)N[C@@H]1CC[C@@H](n2c(=O)n(C)c3cnc4[nH]c(-c5ccc(CN(C)C)cc5)c(-c5ccc(F)cc5)c4c32)C1 [Example 28, Methyl ((1R,3R)-3-(7-(4-((dimethylamino)methyl)phenyl)-8-(4-fluorophenyl)-3-methyl-2-oxo-3,6-dihydroimidazo[4,5-d]pyrrolo[2,3-b]pyridin-1(2H)-yl)cyclopentyl)carbamate]	–	> 500 µg/mL	≥ 5.60	** (selectivity of >500-fold to ≤1500-fold)	5.90 to 6.60
[2H]C([2H])([2H])N(Cc1ccc(-c2[nH]c3ncc4c(c3c2-c2ccc3c(c2)COC3(C)C)n([C@@H]2CC[C@@H](NC(=O)OC)C2)c(=O)n4C([2H])([2H])[2H])cc1)C([2H])([2H])[2H] [Example 29, Methyl ((1R,3R)-3-(7-(4-((bis(methyl-d3)amino)methyl)phenyl)-8-(1,1-dimethyl-1,3-dihydroisobenzofuran-5-yl)-3-(methyl-d3)-2-oxo-3,6-dihydroimidazo[4,5-d]pyrrolo[2,3-b]pyridin-1(2H)-yl)cyclopentyl)carbamate]	–	> 500 µg/mL	≥ 5.60	**** (selectivity of >1750-fold to ≤5000-fold)	5.90 to 6.60
